This note sets out measurements from patent publication US10046001B2, “Compositions and methods for reducing intraocular pressure” (UNIVERSITY OF MIAMI, priority 2013, dated 2018).

Data set [1] deals with assembled layers of primary TM cells. The experiment in a line: fluorescein transport across assembled layers of primary TM cells in Using type chamber. It counts as cell-based, human. Conditions: 10 pmole lipid, transport at 15 seconds. The text has this:
A pentalayer of cells were casted on a PVDF filter of 0.45 μm pore size with second to fourth layer topped with rat collagen. Control (without lipid treatment) or with 10 pmole of indicated lipid treated cells were used for these measurements. The transport of flourescein at 15 seconds from the opposite end after introduction of sample at one was estimated. Mean and standard deviation from three independent experiments have been presented. The relative transport has been divided into two zones (marked in yellow), that when the transport is above 0.48 but less than 0.62=1; and above 0.62=2 as indicated.
The transport of fluorescein across cell assembled layered TM cells was determined in an Using type chamber (FIG. 4). The five layers of primary TM cells with collagen matrix in between layers after the first layer were laid on a sterile PVDF membrane (0.45 μm pores). The fluorescein was introduced from one side of the port (the cellular side) and was sampled from another side (the membrane side) within 15 seconds of introduction. Differences in transport between the cell only control and cell treated with lipids for 1-3 hours prior to forming multi-layers (FIG. 4) was observed. The fluorescein transport was quantized and divided into two categories (marked with yellow zones) as 1 and 2 (FIG. 4).
Using type chamber experiments: An Using type chamber (cat #USS1L, World Precision Instrument, Inc.) was used to measure fluorescein flow (sodium fluorescein dye) across the PVDF membrane (cat #75696E Pall Life Sciences, Pensacola Fla.). Trabecular meshwork cells were cultured as described above on the PVDF membrane. Before plating the cells a layer of collagen matrix (Rat Tail Collagen, cat #BD 354249) was formed on the membrane to facilitate the adherence of TM cells to the membrane. The cells were allowed to form a confluent monolayer over a period of 16-24 hours and then another layer of cells was plated on this monolayer. This process was repeated to ultimately achieve a confluent tri-layer of cells. The cells were transfected with DNA of interest [TREK-1+cochlin, TREK-1 and RPE65, TREK-1, transfection agent (Lipofectamine 2000) (Invitrogen)] or left untransfected. 24-36 hours post transfection the membranes were placed between the hemi-chambers of the apparatus connected to a peristaltic pump creating flow across the membrane bathing in 1× DPBS. To measure the flow across the membrane, sodium flourescein dye was used (1:100 dilution of 1 mg/ml). The dye was introduced in one hemi-chamber and equal amounts (100 μl) were aspirated from the other hemi-chamber at 5 minutes post-injection. The fluorescein intensity was measured using the spectrophotometer.

The subject of the next data set is DBA/2J mice. The experiment in a line: IOP lowering after topical application in DBA/2J mice. It counts as in vivo, mouse. Conditions: DBA/2J mice, topical 10 pmole in 5% DMSO, once daily. As to the method: The right eye was treated with vehicle alone and left eye treated with lipid. Control had both eyes treated with vehicle. A. In DBA/2J mice the indicated lipid in vehicle or control (vehicle only) were administered one daily at around 7.5 months of age in mice which were noted to have a IOP≥18 mm of Hg (20% increase from an average baseline of 15 mm of Hg was employed as treatment point). The average IOP recordings are shown for indicated lipids. B. A 10 picomole each of six PC (13:0/13:0; PE (18:0/18:0), Lyso-PS 18:0, PS 18:1, Sphinganine and C17S1P) were combined and applied as a topical dose once daily for up to 7 days on DBA/2J mouse eyes in 5% DMSO (vehicle). […] Transgenic myocillin mice [Tg-MYOC(Y437H)] subjected to a topical dose of indicated lipids as noted above (FIG. 5C). The IOP lowering compared to control was noted on day 4 and 6 as shown.
Intraocular pressure lowering in mouse models. The endogenous lipids lowered IOP in a DBA/2J mouse model of glaucoma (FIG. 5A). DBA/2J is the only known mouse animal where elevation of IOP occur spontaneously. Although this mouse also suffers from pigmentary dispersion, however, elevation of IOP appears not to correlate with […]. The lipids as indicated were applied as a topical dose (10 pmole in 5% DMSO as vehicle). The 5% DMSO only vehicle served as a control (FIG. 5A). […] A 10 picomole each of six PC (13:0/13:0; PE (18:0/18:0), Lyso-PS 18:0, PS 18:1, Sphinganine, and C17S1P) were combined and applied as a topical dose once daily for up to 7 days on DBA/2J mouse eyes in 5% DMSO (vehicle) (in other words, 10 picomoles of each PC was included). […] In addition to the DBA/2J model described here, these endogenous lipids lowered IOP in cochlin and connective tissue growth factor (CTGF) over-expression models. […] Thus the endogenous lipids assessed here lowered IOP in vastly different DBA/2J and MYOC(Y437H) mouse models as well as in cochlin and CTGF overexpression models covering a broad swath of four rodent glaucoma models that encompass induced as well as spontaneous IOP elevation.
Topical application of lipids and measurement of IOP: The lipids were topically applied as 1 μl drops with 10 pmole lipids. Pressure was measured with a tonolab (Colonial
Medical Supplies, N.H.) or with an assembled cannulation device, used in our laboratory. An initial assessment had utilized 10% DMSO as vehicle. However, all data reported here utilized 5% DMSO.

Data set [2] relates to normotensive cynomolgus monkeys. The experiment in a line: IOP and slit lamp examination in normotensive cynomolgus monkeys after topical lipid. The data set is classed as in vivo. The procedure: Lipids were topically administered in 1 μl volume around ˜1 pm in the afternoon. The right eye was treated with vehicle alone, and the left eye was treated with lipid. The cynomolgus monkeys (n=4) were treated with […] lipid (except C17S1P which was 50 nM) for 5 days. Monkeys were subjected to slit lamp examination and IOP measurement prior to and after treatment. The IOP measured 3-6 hours post-treatment on the fifth day of treatment is depicted as solid bars. The hollow bars are control (vehicle only (5% DMSO)).
Experimental design: The IOP-reducing activity of six lipids was tested in the eyes of cynomolgus monkeys (n=4 animals for each lipid). Baseline slit lamp biomicroscopic examination (SLE) and IOP for each group of animals was measured prior to topical application of lipids. The SLE and IOP were then measured at 3-6 hours posttreatment. One eye of each monkey received topical application with the lipid suspended in vehicle (1% dimethylsulfoxide (DMSO)), and the contralateral eye was treated with vehicle only. All topical applications contained 10 picomole of lipid (except C17S1P, which was 50 nM). […] The IOP was measured using a minified Goldmann applanation tonometer.

Regarding `CCCCCCCCCCCCCC[C@@H](O)[C@@H](N)COP(=O)(O)O` [C17 Sphinganine-1-phosphate], the “transport of fluorescein in assembled layers of primary TM cells” value (shortened to “transport of fluorescein”) in data set [1] is given as “showed an effect”. The “lowering of IOP” value with DBA/2J mice is given as “lowering of IOP”. In data set [2] (topical 10 picomole (C17S1P 50 nM), 5 days, IOP 3-6 hours post-treatment), the IOP reduction result was “reduced IOP significantly”. For the same compound, in data set [2] (topical, slit lamp examination), the “adverse side effects or toxicity” value was “without additional adverse side effects or toxicity”.
With `CCCCCCCC/C=C\CCCCCCCC(=O)N[C@@H](CO)[C@H](O)CCCCCCCCCCCCCCC` [Cer(d18:0/18:1(9Z))], in data set [1], the “transport of fluorescein” value is “showed an effect”. Besides, in the data set with DBA/2J mice, the “lowering of IOP” value is “lowering of IOP”.
Consider `CCCCCCCC/C=C\CCCCCCCCCCCCCCCC(=O)N[C@@H](CO)[C@H](O)/C=C/CCCCCCCCCCCCC` [Cer(d18:1/26:1(17Z))], for which the “transport of fluorescein” value in data set [1] was “showed an effect”. Besides, the “lowering of IOP” value with DBA/2J mice is on record as “lowering of IOP”.
Take `CCCC/C=C\CCCCCCCC(=O)O[C@H](COC(=O)CCCCCCCCCCC)COP(=O)([O-])OCC[N+](C)(C)C` [PC(12:0/14:1(9Z))]: in data set [1], the “transport of fluorescein” value was “lack of any effect”. In the data set on DBA/2J mice, the “lowering of IOP” value is reported as “not”.
As to `CCCCCCCCCCCCC(=O)OC[C@H](COP(=O)([O-])OCC[N+](C)(C)C)OC(=O)CCCCCCCCCCCC` [PC(13:0/13:0), 1,2-ditridecanoyl-sn-glycero-3-phosphocholine, reference compound], the “transport of fluorescein” value in data set [1] was “lack of any effect”. Also, in the data set with DBA/2J mice, the “lowering of IOP” value is given as “not”.
As for `CCCCCCCCCCCCCCCCCC(=O)OC[C@H](COP(=O)(O)OCCN)OC(=O)CCCCCCCCCCCCCCCCC` [PE(18:0/18:0)], in data set [1], the “transport of fluorescein” value is “showed an effect”. Besides, the “lowering of IOP” value in the data set on DBA/2J mice is “lowering of IOP”.
For `CCCC/C=C\C/C=C\CCCCCCCC(=O)O[C@H](COC(=O)CCCCCCCCCCC)COP(=O)(O)OC1C(O)C(O)C(O)[C@@H](O)C1O` (some centres unmarked) [PI(12:0/17:2)9Z,12Z))], in that order: “showed an effect” and “lowering of IOP”.
For the compound `CCCCC/C=C\C/C=C\C/C=C\C/C=C\CCCC(=O)O[C@H](COC(=O)CCCCCCCCCCCCCCCCC)COP(=O)(O)OC1[C@H](O)[C@H](O)C(O)[C@H](O)[C@H]1O` (some centres unmarked) [PI(18:0/20:4)5Z,8Z,11Z,14Z))], in data set [1], the “transport of fluorescein” value is given as “showed an effect”. In addition, in the data set on DBA/2J mice, the “lowering of IOP” value is “lowering of IOP”.
In the case of `CCCCCCCCCCCCCC(=O)OC[C@@H](O)COP(=O)(O)OC[C@H](N)C(=O)O` [PS(14:0/0:0)], the “transport of fluorescein” value in data set [1] is listed as “showed an effect”. Also, the “lowering of IOP” value in the data set with DBA/2J mice is “lowering of IOP”.
Turning to `CCCCCCCCCCCCCCCCCC(=O)OC[C@@H](O)COP(=O)(O)OC[C@H](N)C(=O)O` [PS(18:0/0:0)], the “transport of fluorescein” value in data set [1] was “showed an effect”. Further, the “lowering of IOP” value in the data set on DBA/2J mice is “lowering of IOP”.
For `CCCCCCCCCCC/C=C/[C@@H](O)[C@H](COP(=O)([O-])OCC[N+](C)(C)C)NC(=O)CCCCCCCCCCCCCCCCCCCCCCCC` [SM(d16:1/25:0)], the “transport of fluorescein” value in data set [1] is “showed an effect”. Moreover, the “lowering of IOP” value in the data set on DBA/2J mice is reported as “lowering of IOP”.
`CCCCCCCCCCCCCCC[C@@H](O)[C@@H](N)CO` [Sphinganine]: the “transport of fluorescein” value in data set [1] is listed as “showed an effect”. Moreover, in the data set with DBA/2J mice, the “lowering of IOP” value is listed as “lowering of IOP”.
